# How the values were obtained:
# PHH (TF-HU8373) [1] = assay: Midazolam metabolism (1′-OH MDZ formation) in PhysioMimix LC-12, PHH monoculture; conditions: PhysioMimix LC-12, PHH, 5 µM MDZ
# PHH (TF-HU8373) [2] = assay: Midazolam metabolism (1′-OH MDZ formation) in 96-well plate, PHH; format: in vitro ADME, human; conditions: day 2, incubation 24 h
# Procedure: For the PHH 2D model, 96-well plates were first coated with 200 μg/mL collagen I (CB354249, Corning Inc.) and 50 μg/mL fibronectin (F1141, Sigma-Aldrich, St. Louis, MO, USA) and incubated at 37 °C, 5% CO2 for 1 h. Thawed PHHs were collected by centrifugation (100× g, 10 min), resuspended in plating media, and seeded at a density of 50,000–60,000 cells/well. After incubation overnight, the media were changed to maintenance media. The total well volume was 100 μL, and plates were incubated at 37 °C, 5% CO2, with media refreshed every 1–2 days.
# After drug addition, media were collected every 2, 6, and 24 h. After 24 h, the drug treatment media were replaced with fresh maintenance media. For the experiment with pesticide mixtures, we selected chemicals from the Agency for Toxic Substances and Disease Registry Substance Priority List, which contains compounds that are commonly detected at Superfund sites and are known to be hazardous to human health. A molar-equivalent mixture was created by combining all 20 pesticides and diluting them to a final concentration of 1 or 5 μM each in dimethyl sulfoxide (DMSO, final concentration 0.5% v/v). Media was collected 48 h after treatment for the analyses detailed below. […]
# PHH (various donors) = test system: PHH (various donors); set-up: method as in PMID 27338863; conditions: Suspension, day 0 of culture, incubation 0.17 h; cited from earlier work
structure (smiles),measurement,setting,value
"OCc1ncc2n1-c1ccc(Cl)cc1C(c1ccccc1F)=NC2 [1′-OH-midazolam, 1-hydroxymidazolam]","1′-OH MDZ Formed, Mean ± S.D.","PHH (TF-HU8373) [1]; day 6, incubation 2 h",2.72 ± 1.75 pmol/min/1 M Hep.
same,"1′-OH MDZ Formed, Median","PHH (TF-HU8373) [1]; day 6, incubation 2 h",2.33 pmol/min/1 M Hep.
same,"1′-OH MDZ Formed, Mean ± S.D.","PHH (TF-HU8373) [1]; day 6, incubation 24 h",0.610 ± 0.403 pmol/min/1 M Hep.
same,"1′-OH MDZ Formed, Median","PHH (TF-HU8373) [1]; day 6, incubation 24 h",0.561 pmol/min/1 M Hep.
same,"1′-OH MDZ Formed, Mean ± S.D.","PHH (TF-HU8373) [1]; day 12, incubation 24 h",0.753 ± 0.612 pmol/min/1 M Hep.
same,"1′-OH MDZ Formed, Median","PHH (TF-HU8373) [1]; day 12, incubation 24 h",0.649 pmol/min/1 M Hep.
same,"1′-OH MDZ Formed, Mean ± S.D.",PHH (TF-HU8373) [2],0.163 ± 0.064 pmol/min/1 M Hep.
same,"1′-OH MDZ Formed, Median",PHH (TF-HU8373) [2],0.189 pmol/min/1 M Hep.
same,"1′-OH MDZ Formed, Mean ± S.D.",PHH (various donors),100 ± 106 pmol/min/1 M Hep.
same,"1′-OH MDZ Formed, Median",PHH (various donors),63.7 pmol/min/1 M Hep.
